Values of other authors as cited in paper PMC5760531, “Action Potential Recording and Pro-arrhythmia Risk Analysis in Human Ventricular Trabeculae” (Frontiers in Physiology, 2018).

System: Nav1.5
Set-up: method as in Qu and Vargas, 2015
Conditions: previous experiments; ref Qu and Vargas, 2015; cited from earlier work

## Nc1nnc(-c2cccc(Cl)c2Cl)c(N)n1 [LAMOTRIGINE, Lamotrigine]
  IC50: 40 µM
